Reference: patent publication US11446299B2, “Carbazole EHop-016 derivatives as anticancer and anti-migratory agents” (UNIVERSITY OF PUERTO RICO, priority 2017, dated 2022)
Entries after “also recorded” stand apart in the source; their conditions may differ.

What was measured:
[1] = system: MCF-7 cancer cells; experiment: Sulforhodamine B (SRB) growth inhibition assay; assay type: cell-based; conditions: Homo sapiens, MCF7, 24 h treatment, mean of triplicate, SD <10%
In short: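 Cells at 1.9×10^4/well exposed to compounds at 50, 25, 12.5, 6.3 and 1.6 μM in triplicate for 24 hrs at 37° C; DMSO 0.1% as negative control. TCA-fixed, SRB-stained, absorbance at 510 nm; GI50 from variable-slope sigmoidal dose-response curves.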

[2] = system: MDA-MB-231 metastatic breast cancer cells; experiment: Cell viability, CellTiter 96 AQueous One Solution Cell Proliferation Assay; assay type: cell-based, human; conditions: HV-107 24 or 48 h, HV-118 48 h
Protocol: (§1) FIG. 7. Effect of HV-107 on cell viability. Cells were treated with vehicle control (0.5% DMSO) or varying concentrations of HV-107 (250-6000 nM) for 48 h. Cell viability was measured using the CellTiter 96® AQueous One Solution Cell Proliferation Assay from Promega, as per manufacturer's instruction. Relative cell viability is presented for non-cancerous mammary epithelial cells (MCF10A) or metastatic breast cancer cells MDA-MB-231 or MDA-MB-435. N=3-4, each with three technical replicates; Error bars represent ±SEM; * p≤0.05.
(§2) FIG. 9. Effect of HV-118 on cell viability. Cells were treated with vehicle control (0.5% DMSO) or varying concentrations of HV-118 (10-500 nM) for 48 h. Cell viability was measured using the CellTiter 96® AQueous One Solution Cell Proliferation Assay from Promega, as per manufacturer's instruction. Relative cell viability is presented for human non-cancerous mammary epithelial cells (MCF10A) or human metastatic breast cancer cells MDA-MB-231 or MDA-MB-435. N=3, each with three technical replicates; error bars represent ±SEM; * p≤0.05.
(§3) Cells were treated with ehicle control (0.5% DMSO) or varying concentrations of HV-107 (250-8000 nM) for 24 or 48 h. Cell viability was measured using the CellTiter 96® AQueous One Solution Cell Proliferation Assay from Promega, as per manufacturer's instruction. Relative cell viability is presented for non-cancerous mammary epithelial cells MCF10A (FIG. 7) or metastatic breast cancer cells MDA-MB-231 or MDA-MB-435. N=3, each with three technical replicates; Error bars represent ±SEM; * p≤0.05.
(§4) Cells were treated with vehicle control (0.5% DMSO) or varying concentrations of HV-118 (10-500 nM) for 48 h. Cell viability was measured using the CellTiter 96® AQueous One Solution Cell Proliferation Assay from Promega, as per manufacturer's instruction. Relative cell viability is presented for human non-cancerous mammary epithelial cells MCF10A (FIG. 9) or human metastatic breast cancer cells MDA-MB-231 or MDA-MB-435. N=3, each with three technical replicates; error bars represent ±SEM; * p≤0.05.

[3] = system: MDA-MB-435 metastatic breast cancer cells; experiment: as above; assay type: cell-based, human; conditions: HV-107 24 or 48 h, HV-118 48 h
Protocol: as §1, §2, §3, §4

[4] = system: non-cancerous mammary epithelial cells MCF10A; experiment: as above; assay type: cell-based, human; conditions: for toxicity / effect on viability of non-cancerous mammary epithelial cells, in words: MCF10A, at the concentrations tested
Protocol: as §1, §2, §3, §4

CCn1c2ccccc2c2cc(C(=O)Nc3cccnc3N3CCOCC3)ccc21 [Compound 11b, 9-Ethyl-9H-carbazole-3-carboxylic Acid (2-morpholin-4-yl-pyridin-3-yl)-amide]
GI50 [1]: > 50 µM | concentration at which viability is significantly inhibited [2]: ≥ 500 nM | concentration at which viability is significantly inhibited [3]: ≥ 500 nM | toxicity / effect on viability of non-cancerous mammary epithelial cells, in words ([4]; listed as HV-107): minimal toxicity; also recorded: minimal or no inhibition | toxicity to non-cancerous mammary epithelial cells, in words ([4]; at concentrations ≥1 μM): not toxic

CCn1c2ccccc2c2cc(Nc3cc(C)nc(Cl)n3)ccc21 [HV-118, (2-Chloro-6-methyl-pyrimidin-4-yl)-(9-ethyl-9H-carbazol-3-yl)-amine]
concentration at which viability is significantly inhibited [2]: ≥ 50 nM | concentration at which viability is significantly inhibited [3]: ≥ 50 nM | toxicity / effect on viability of non-cancerous mammary epithelial cells, in words [4]: minimal effects; also recorded: minimal or no inhibition; also recorded: minimal toxicity
